{"source": "paper PMC10108347", "about": "“Heterobifunctional Ligase Recruiters Enable pan-Degradation of Inhibitor of Apoptosis Proteins” (Journal of Medicinal Chemistry, 2023)", "key": {"XIAP": {"biological_target": "XIAP (Homo sapiens, UniProt P98170)", "sequence (P98170 whole entry)": "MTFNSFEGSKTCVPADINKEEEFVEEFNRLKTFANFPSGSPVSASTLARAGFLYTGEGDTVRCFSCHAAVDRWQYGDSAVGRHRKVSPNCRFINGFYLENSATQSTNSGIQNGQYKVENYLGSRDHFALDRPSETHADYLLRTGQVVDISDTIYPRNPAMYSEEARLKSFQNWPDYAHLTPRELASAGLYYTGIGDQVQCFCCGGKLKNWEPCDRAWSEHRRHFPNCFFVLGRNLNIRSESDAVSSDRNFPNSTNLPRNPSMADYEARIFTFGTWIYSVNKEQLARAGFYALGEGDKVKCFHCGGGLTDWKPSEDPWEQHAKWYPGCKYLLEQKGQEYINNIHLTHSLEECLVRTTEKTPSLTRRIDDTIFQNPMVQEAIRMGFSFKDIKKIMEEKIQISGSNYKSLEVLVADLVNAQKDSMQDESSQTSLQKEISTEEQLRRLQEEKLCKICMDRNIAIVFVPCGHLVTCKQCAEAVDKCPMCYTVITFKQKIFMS", "experiment": "Immunoblotting (western blot) quantification of XIAP levels in MM.1S cells", "conditions": "MM1.S, 16 h"}, "cIAP1": {"biological_target": "cIAP1 (Homo sapiens, UniProt Q13490)", "sequence (Q13490 whole entry)": "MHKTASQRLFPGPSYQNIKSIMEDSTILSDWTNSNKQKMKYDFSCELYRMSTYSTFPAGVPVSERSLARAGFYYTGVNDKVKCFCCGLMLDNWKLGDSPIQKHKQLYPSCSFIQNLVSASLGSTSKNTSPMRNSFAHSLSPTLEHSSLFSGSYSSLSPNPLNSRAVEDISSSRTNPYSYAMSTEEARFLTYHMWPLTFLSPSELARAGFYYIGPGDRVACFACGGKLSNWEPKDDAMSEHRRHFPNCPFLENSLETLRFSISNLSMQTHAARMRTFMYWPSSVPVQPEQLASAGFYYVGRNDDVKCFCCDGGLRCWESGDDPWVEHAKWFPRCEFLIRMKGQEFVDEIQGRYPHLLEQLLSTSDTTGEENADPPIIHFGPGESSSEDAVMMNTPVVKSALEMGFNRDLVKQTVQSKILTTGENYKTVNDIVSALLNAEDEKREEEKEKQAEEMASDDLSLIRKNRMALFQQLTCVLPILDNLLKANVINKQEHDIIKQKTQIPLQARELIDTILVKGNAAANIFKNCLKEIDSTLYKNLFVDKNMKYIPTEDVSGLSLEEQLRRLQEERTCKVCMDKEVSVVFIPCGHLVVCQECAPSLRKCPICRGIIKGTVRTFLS", "experiment": "Immunoblotting (western blot) quantification of cIAP1 levels in MM.1S cells", "conditions": "MM1.S, 16 h"}, "cIAP2": {"biological_target": "cIAP2 (Homo sapiens, UniProt Q13489)", "sequence (Q13489 whole entry)": "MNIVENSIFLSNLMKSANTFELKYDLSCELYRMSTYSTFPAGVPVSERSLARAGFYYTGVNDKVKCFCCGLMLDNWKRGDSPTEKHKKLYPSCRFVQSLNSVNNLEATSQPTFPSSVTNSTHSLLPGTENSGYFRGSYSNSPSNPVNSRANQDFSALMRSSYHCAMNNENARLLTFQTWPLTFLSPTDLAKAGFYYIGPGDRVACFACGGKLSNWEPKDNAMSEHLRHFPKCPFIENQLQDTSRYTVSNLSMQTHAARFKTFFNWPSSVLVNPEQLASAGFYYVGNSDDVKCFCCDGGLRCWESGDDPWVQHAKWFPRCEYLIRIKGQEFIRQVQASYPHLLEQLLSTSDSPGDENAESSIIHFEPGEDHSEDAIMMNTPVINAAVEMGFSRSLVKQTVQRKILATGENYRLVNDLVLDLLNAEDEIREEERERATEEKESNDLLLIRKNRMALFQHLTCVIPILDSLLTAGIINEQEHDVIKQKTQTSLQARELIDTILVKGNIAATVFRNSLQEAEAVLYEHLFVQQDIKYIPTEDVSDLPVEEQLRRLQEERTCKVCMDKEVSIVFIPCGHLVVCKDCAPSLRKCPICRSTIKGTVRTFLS", "experiment": "Immunoblotting (western blot) quantification of cIAP2 levels in MM.1S cells", "conditions": "MM1.S, 16 h"}, "VHL30": {"biological_target": "VHL30 (Homo sapiens, UniProt P40337)", "sequence (P40337 whole entry)": "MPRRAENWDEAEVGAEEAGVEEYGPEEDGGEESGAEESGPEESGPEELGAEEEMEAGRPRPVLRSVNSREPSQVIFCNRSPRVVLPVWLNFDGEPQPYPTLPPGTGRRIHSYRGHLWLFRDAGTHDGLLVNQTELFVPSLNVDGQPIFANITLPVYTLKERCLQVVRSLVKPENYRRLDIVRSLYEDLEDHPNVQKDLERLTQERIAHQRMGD", "experiment": "Immunoblotting (western blot) quantification of VHL30 levels in MM.1S cells", "conditions": "for remaining activity at 0.1 µM: MM1.S"}, "[1]": {"tested_on": "IAPs (cIAP1, cIAP2, XIAP)", "experiment": "Immunoblotting of IAPs in MM.1S cells, overall degradation profile, time course and washout", "format": "cell-based", "conditions": "16 h, western blot, concentration (10 nM to 1 μM)", "protocol": "Next, we examined the persistence of IAP degradation in MM.1S cells after a single exposure to 1 μM of 9 and subsequent removal of the compound. […] The reliance on CRL2^VHL was assessed with a neddylation inhibitor MLN4924, which blocks the activity of CRLs (Figure S13A)."}, "[2]": {"experiment": "Log D7.4 measurement by chromatographic (fast-gradient HPLC) method", "conditions": "pH 7.4"}, "[3]": {"conditions": "read-out: %remaining protein XIAP, MM.1S cells, 16 h treatment at 0.1 μM, normalized to loading control and DMSO"}, "[4]": {"conditions": "read-out: %remaining protein cIAP1, MM.1S cells, 16 h treatment at 0.1 μM, normalized to loading control and DMSO"}, "[5]": {"conditions": "read-out: %remaining protein cIAP2, MM.1S cells, 16 h treatment at 0.1 μM, normalized to loading control and DMSO"}, "[6]": {"conditions": "16 h, read-out: %remaining protein VHL30, MM.1S cells, 16 h treatment at 0.1 μM, normalized to loading control and DMSO"}, "[7]": {"conditions": "read-out: %remaining protein XIAP"}, "[8]": {"conditions": "read-out: %remaining protein cIAP1"}, "[9]": {"conditions": "read-out: %remaining protein cIAP2"}, "[10]": {"conditions": "16 h, read-out: %remaining protein VHL30"}}, "note": "Read-outs that look alike come from different tables or passages of the source."}
{"compound": "CN[C@@H](C)C(=O)N[C@H](C(=O)N1C[C@@H](Oc2cccc(OCCCCOCCCC(=O)N[C@H](C(=O)N3C[C@H](O)C[C@H]3C(=O)NCc3ccc(-c4scnc4C)cc3)C(C)(C)C)c2)C[C@H]1C(=O)N[C@@H]1CCCc2ccccc21)C1CCCCC1", "note": "[PROTAC 3, (2S,4S)-1-((S)-2-Cyclohexyl-2-((S)-2-(methylamino)propanamido)acetyl)-4-(3-(4-(4-(((S)-1-((2S,4R)-4-hydroxy-2-((4-(4-methylthiazol-5-yl)benzyl)carbamoyl)pyrrolidin-1-yl)-3,3-dimethyl-1-oxobutan-2-yl)amino)-4-oxobutoxy)butoxy)phenoxy)-N-((R)-1,2,3,4-tetrahydronaphthalen-1-yl)pyrrolidine-2-carboxamide]", "values": [{"measurement": "remaining activity at 0.1 µM", "setting": "XIAP; [3]", "result": 4, "unit": "%"}, {"measurement": "remaining activity at 0.1 µM", "setting": "cIAP1; [4]", "result": 3, "unit": "%"}, {"measurement": "remaining activity at 0.1 µM", "setting": "cIAP2; [5]", "result": 30, "unit": "%"}, {"measurement": "remaining activity at 0.1 µM", "setting": "VHL30; [6]", "result": 29, "unit": "%"}, {"measurement": "VHL30 protein degradation", "setting": "VHL30; MM.1S cells, 16 h, 0.1 μM, quantified by western blot", "result": 71, "unit": "%"}]}
{"compound": "CN[C@@H](C)C(=O)N[C@H](C(=O)N1C[C@@H](Oc2cccc(OCCOCCOCCOCC(=O)N[C@H](C(=O)N3C[C@H](O)C[C@H]3C(=O)NCc3ccc(-c4scnc4C)cc3)C(C)(C)C)c2)C[C@H]1C(=O)N[C@@H]1CCCc2ccccc21)C1CCCCC1", "note": "[PROTAC 5, (2S,4R)-1-((S)-2-(tert-Butyl)-14-(3-(((3S,5S)-1-((S)-2-cyclohexyl-2-((S)-2-(methylamino)propanamido)acetyl)-5-(((R)-1,2,3,4-tetrahydronaphthalen-1-yl)carbamoyl)pyrrolidin-3-yl)oxy)phenoxy)-4-oxo-6,9,12-trioxa-3-azatetradecanoyl)-4-hydroxy-N-(4-(4-methylthiazol-5-yl)benzyl)pyrrolidine-2-carboxamide]", "values": [{"measurement": "remaining activity at 0.1 µM", "setting": "XIAP; [3]", "result": 2, "unit": "%"}, {"measurement": "remaining activity at 0.1 µM", "setting": "cIAP1; [4]", "result": 2, "unit": "%"}, {"measurement": "remaining activity at 0.1 µM", "setting": "cIAP2; [5]", "result": 37, "unit": "%"}, {"measurement": "remaining activity at 0.1 µM", "setting": "VHL30; [6]", "result": 37, "unit": "%"}]}
{"compound": "CC(=O)N(C)[C@@H](C)C(=O)N[C@H](C(=O)N1C[C@@H](Oc2cccc(OCCCCC(=O)N[C@H](C(=O)N3C[C@H](O)C[C@H]3C(=O)N[C@@H](C)c3ccc(-c4scnc4C)cc3)C(C)(C)C)c2)C[C@H]1C(=O)N[C@@H]1CCCc2ccccc21)C1CCCCC1", "note": "[PROTAC 10c, (2S,4S)-1-((S)-2-Cyclohexyl-2-((S)-2-(N-methylacetamido)propanamido)acetyl)-4-(3-((5-(((S)-1-((2S,4R)-4-hydroxy-2-(((S)-1-(4-(4-methylthiazol-5-yl)phenyl)ethyl)carbamoyl)pyrrolidin-1-yl)-3,3-dimethyl-1-oxobutan-2-yl)amino)-5-oxopentyl)oxy)phenoxy)-N-((R)-1,2,3,4-tetrahydronaphthalen-1-yl)pyrrolidine-2-carboxamide]", "values": [{"measurement": "IAP degradation profile (in words)", "setting": "[1]", "result": "inactivated PROTACs"}, {"measurement": "remaining activity at 0.1 µM", "setting": "XIAP; [3]", "result": 88, "unit": "%"}, {"measurement": "remaining activity at 0.1 µM", "setting": "cIAP1; [4]", "result": 94, "unit": "%"}, {"measurement": "remaining activity at 0.1 µM", "setting": "cIAP2; [5]", "result": "> 99", "unit": "%"}, {"measurement": "remaining activity at 0.1 µM", "setting": "VHL30; [6]", "result": "> 99", "unit": "%"}]}
{"compound": "Cc1ncsc1-c1ccc([C@H](C)NC(=O)[C@@H]2C[C@@H](O)CN2C(=O)[C@@H](NC(=O)CCCCOc2cccc(O[C@H]3C[C@@H](C(=O)N[C@@H]4CCCc5ccccc54)N(C(=O)[C@@H](NC(=O)[C@H](C)N(C)C(=O)OC(C)(C)C)C4CCCCC4)C3)c2)C(C)(C)C)cc1", "note": "[PROTAC 10d, tert-Butyl ((S)-1-(((S)-1-Cyclohexyl-2-((2S,4S)-4-(3-((5-(((S)-1-((2S,4R)-4-hydroxy-2-(((S)-1-(4-(4-methylthiazol-5-yl)phenyl)ethyl)carbamoyl)pyrrolidin-1-yl)-3,3-dimethyl-1-oxobutan-2-yl)amino)-5-oxopentyl)oxy)phenoxy)-2-(((R)-1,2,3,4-tetrahydronaphthalen-1-yl)carbamoyl)pyrrolidin-1-yl)-2-oxoethyl)amino)-1-oxopropan-2-yl)(methyl)carbamate]", "values": [{"measurement": "IAP degradation profile (in words)", "setting": "[1]", "result": "inactivated PROTACs"}, {"measurement": "remaining activity at 0.1 µM", "setting": "XIAP; [3]", "result": 87, "unit": "%"}, {"measurement": "remaining activity at 0.1 µM", "setting": "cIAP1; [4]", "result": 73, "unit": "%"}, {"measurement": "remaining activity at 0.1 µM", "setting": "cIAP2; [5]", "result": 88, "unit": "%"}, {"measurement": "remaining activity at 0.1 µM", "setting": "VHL30; [6]", "result": "> 99", "unit": "%"}]}
{"compound": "CN[C@@H](C)C(=O)N[C@H](C(=O)N1C[C@@H](Oc2cccc(OCCCCCCOCCCCCCOCCCCCCNc3cccc4c3C(=O)N(C3CCC(=O)N(C)C3=O)C4=O)c2)C[C@H]1C(=O)N[C@@H]1CCCc2ccccc21)C1CCCCC1", "note": "(stereo partly drawn) [PROTAC 29, (2S,4S)-1-((S)-2-Cyclohexyl-2-((S)-2-(methylamino)propanamido)acetyl)-4-(3-((6-((6-((6-((2-(1-methyl-2,6-dioxopiperidin-3-yl)-1,3-dioxoisoindolin-4-yl)amino)hexyl)oxy)hexyl)oxy)hexyl)oxy)phenoxy)-N-((R)-1,2,3,4-tetrahydronaphthalen-1-yl)pyrrolidine-2-carboxamide]", "values": [{"measurement": "chromatographic logD", "setting": "[2]", "result": 7.4}]}
{"compound": "Cc1ncsc1-c1ccc([C@H](C)NC(=O)[C@@H]2C[C@@H](O)CN2C(=O)[C@@H](NC(=O)CCCCOc2cccc(O[C@H]3C[C@@H](C(=O)N[C@@H]4CCCc5ccccc54)N(C(=O)[C@@H](NC(=O)[C@H](C)N(C)C)C4CCCCC4)C3)c2)C(C)(C)C)cc1", "note": "[PROTAC 10b, (2S,4S)-1-((S)-2-Cyclohexyl-2-((S)-2-(dimethylamino)propanamido)acetyl)-4-(3-((5-(((S)-1-((2S,4R)-4-hydroxy-2-(((S)-1-(4-(4-methylthiazol-5-yl)phenyl)ethyl)carbamoyl)pyrrolidin-1-yl)-3,3-dimethyl-1-oxobutan-2-yl)amino)-5-oxopentyl)oxy)phenoxy)-N-((R)-1,2,3,4-tetrahydronaphthalen-1-yl)pyrrolidine-2-carboxamide]", "values": [{"measurement": "IAP degradation profile (in words)", "setting": "[1]", "result": "cIAP1 and cIAP2 degradation"}, {"measurement": "remaining activity at 0.1 µM", "setting": "XIAP; [3]", "result": 66, "unit": "%"}, {"measurement": "remaining activity at 0.1 µM", "setting": "cIAP1; [4]", "result": 2, "unit": "%"}, {"measurement": "remaining activity at 0.1 µM", "setting": "cIAP2; [5]", "result": 27, "unit": "%"}, {"measurement": "remaining activity at 0.1 µM", "setting": "VHL30; [6]", "result": 63, "unit": "%"}]}
{"compound": "CN[C@@H](C)C(=O)N[C@H](C(=O)N1C[C@@H](Oc2cccc(OCCCCCCOCCCCCOCCCCCOc3cc(-c4scnc4C)ccc3CNC(=O)[C@@H]3C[C@@H](O)CN3C(=O)[C@H](C(C)C)N3Cc4ccccc4C3=O)c2)C[C@H]1C(=O)N[C@@H]1CCCc2ccccc21)C1CCCCC1", "note": "[PROTAC 18, (2S,4S)-1-((S)-2-Cyclohexyl-2-((S)-2-(methylamino)propanamido)acetyl)-4-(3-((6-((5-((5-(2-(((2S,4R)-4-hydroxy-1-((S)-3-methyl-2-(1-oxoisoindolin-2-yl)butanoyl)pyrrolidine-2-carboxamido)methyl)-5-(4-methylthiazol-5-yl)phenoxy)pentyl)oxy)pentyl)oxy)hexyl)oxy)phenoxy)-N-((R)-1,2,3,4-tetrahydronaphthalen-1-yl)pyrrolidine-2-carboxamide]", "values": [{"measurement": "chromatographic logD", "setting": "[2]", "result": 5.6}, {"measurement": "remaining activity at 0.1 µM", "setting": "XIAP; [7]", "result": 6, "unit": "%"}, {"measurement": "remaining activity at 0.1 µM", "setting": "cIAP1; [8]", "result": 5, "unit": "%"}, {"measurement": "remaining activity at 0.1 µM", "setting": "cIAP2; [9]", "result": 37, "unit": "%"}, {"measurement": "remaining activity at 0.1 µM", "setting": "VHL30; [10]", "result": 88, "unit": "%"}]}
{"compound": "CN[C@@H](C)C(=O)N[C@H](C(=O)N1C[C@@H](Oc2cccc(OCCCCCCOCCCCCCOCCCCCC(=O)N[C@H](C(=O)N3C[C@H](O)C[C@H]3C(=O)NCc3ccc(-c4scnc4C)cc3)C(C)(C)C)c2)C[C@H]1C(=O)N[C@@H]1CCCc2ccccc21)C1CCCCC1", "note": "[PROTAC 8, (2S,4S)-1-((S)-2-Cyclohexyl-2-((S)-2-(methylamino)propanamido)acetyl)-4-(3-((6-((6-((6-(((S)-1-((2S,4R)-4-hydroxy-2-((4-(4-methylthiazol-5-yl)benzyl)carbamoyl)pyrrolidin-1-yl)-3,3-dimethyl-1-oxobutan-2-yl)amino)-6-oxohexyl)oxy)hexyl)oxy)hexyl)oxy)phenoxy)-N-((R)-1,2,3,4-tetrahydronaphthalen-1-yl)pyrrolidine-2-carboxamide]", "values": [{"measurement": "remaining activity at 0.1 µM", "setting": "XIAP; [3]", "result": 4, "unit": "%"}, {"measurement": "remaining activity at 0.1 µM", "setting": "cIAP1; [4]", "result": 3, "unit": "%"}, {"measurement": "remaining activity at 0.1 µM", "setting": "cIAP2; [5]", "result": 36, "unit": "%"}, {"measurement": "remaining activity at 0.1 µM", "setting": "VHL30; [6]", "result": 95, "unit": "%"}]}
{"compound": "CN[C@@H](C)C(=O)N[C@H](C(=O)N1C[C@@H](Oc2cccc(OCCCCCCOCCCCCOCCCCC(=O)N[C@H](C(=O)N3C[C@H](O)C[C@H]3C(=O)NCc3ccc(-c4scnc4C)cc3)C(C)(C)C)c2)C[C@H]1C(=O)N[C@@H]1CCCc2ccccc21)C1CCCCC1", "note": "[PROTAC 7, (2S,4S)-1-((S)-2-Cyclohexyl-2-((S)-2-(methylamino)propanamido)acetyl)-4-(3-((6-((5-((5-(((S)-1-((2S,4R)-4-hydroxy-2-((4-(4-methylthiazol-5-yl)benzyl)carbamoyl)pyrrolidin-1-yl)-3,3-dimethyl-1-oxobutan-2-yl)amino)-5-oxopentyl)oxy)pentyl)oxy)hexyl)oxy)phenoxy)-N-((R)-1,2,3,4-tetrahydronaphthalen-1-yl)pyrrolidine-2-carboxamide]", "values": [{"measurement": "remaining activity at 0.1 µM", "setting": "XIAP; [7]", "result": 3, "unit": "%"}, {"measurement": "remaining activity at 0.1 µM", "setting": "cIAP1; [8]", "result": 2, "unit": "%"}, {"measurement": "remaining activity at 0.1 µM", "setting": "cIAP2; [9]", "result": 32, "unit": "%"}, {"measurement": "remaining activity at 0.1 µM", "setting": "VHL30; [10]", "result": 83, "unit": "%"}]}
{"compound": "Cc1ncsc1-c1ccc(CNC(=O)[C@@H]2C[C@@H](O)CN2C(=O)[C@@H](NC(=O)COCCOCCOCCOCCOCCOCC(=O)N[C@H](C(=O)N2C[C@H](O)C[C@H]2C(=O)NCc2ccc(-c3scnc3C)cc2)C(C)(C)C)C(C)(C)C)cc1", "note": "[CM11, reference compound]", "values": [{"measurement": "VHL30 degradation (in words)", "setting": "VHL30; MM.1S cells, western blot", "result": "strong and dose-dependent VHL30 degradation"}]}
